From PubChem BioAssay AID1963870 (Molecular Pharmacology Branch, DTP, NCI, 2024)

Test system: 292921-168-R-J2-PDC KRAS tumor spheroid viability
Assay: Anticancer human tumor 292921-168-R-J2-PDC patient-derived pancreatic carcinoma cell line growth inhibition [KRAS2]
Conditions: spheroids with HUVEC and MSC; for IC50: curve of first compound; for viability, T/C: stronger effect = lower value
Text: Multicellular complex tumor spheroid response to RAS pathway inhibitors in combination with a targeted agents in patient-derived cell lines with oncogenic KRAS variants from multiple cancer types
A high-throughput screen of multi-cell type tumor spheroids was designed to identify active combinations of targeted small molecules and KRAS pathway inhibitors. Complex spheroids include a stromal component modeled by human endothelial cells (HUVEC) and fibroblasts modeled by human mesenchymal stem cells (MSCs). The concentration ranges selected for each drug and investigational agent were based upon clinically achievable concentrations if the clinical Cmax of the agent was known.
Compounds. The drugs and investigational agents: BI-3406 (NSC825286), BAY-293 (NSC824723), batoprotafib (TNO155; NSC825523), sotorasib (AMG 510; NSC818433), MRTX1257 (NSC819558), elimusertib (BAY 1895344; NSC800525), molibresib (GSK525762; NSC774829), temuterkib (LY3214996; NSC803410), venetoclax (NSC766270), alisertib (NSC759677), olaparib (NSC753686), talazoparib (NSC767125), erdafitinib (NSC781556), ipatasertib (NSC767898), cabozantinib (NSC761068), nintedanib (NSC756659), abemaciclib (NSC768073), docetaxel (NSC628503), trametinib (NSC758246), and sapanisertib (NSC764658) were obtained from the National Cancer Institute (NCI) Developmental Therapeutics Program Chemical Repository. The FDA-approved anticancer drug set is available from the Developmental Therapeutics Program. […] The stock solutions were prepared in dimethyl sulfoxide (DMSO, Sigma-Aldrich, St. Louis, MO, cat. D2650) at 800-fold the tested concentration and stored at -70 degrees C prior to their use. All drugs and investigational agents were tested over a range starting from a high concentration at or near the clinical Cmax and decreasing in half-log increments. If the clinical Cmax for an agent had not been determined, the highest concentration tested was 10 microM.
Cell Culture. All cells were maintained in an incubator at 37 degrees C and 5% CO2 with 95% humidity. The PDC lines were cultured according to standard operating procedures established by the NCI PDMR (https://pdmr.cancer.gov/sops/default.htm). Briefly, all PDCs were thawed and cultured in Matrigel-coated flasks prepared with a working solution of 1X Ham's F-12 nutrient mix, without supplementation (Invitrogen, Waltham, MA, cat. 11765054), 100 U/mL penicillin-streptomycin (Invitrogen, cat. 15140122), and 2.5% Matrigel (Corning Inc., Corning, NY, cat. 354248) for the first three passages. All PDCs were cultured in complete DMEM/F-12 media containing advanced DMEM/F-12 (Invitrogen, cat. 12634028), 4.9% defined fetal bovine serum, heat inactivated (HyClone Laboratories Inc., Logan, UT, cat. SH30070.03HI), 389 ng/mL hydrocortisone (Sigma-Aldrich, cat. H4001), 9.7 ng/mL human EGF recombinant protein (Invitrogen, cat. PHG0313), 23.4 microg/mL adenine (Sigma-Aldrich, cat. A2786), 97.3 U/mL penicillin-streptomycin (Invitrogen, cat. 15140122), 1.9 mM L-glutamine (Invitrogen, cat. 25030081), and 9.7 microM Y-27632 dihydrochloride (Tocris Bioscience, Bristol, United Kingdom, cat. 1254). The PDCs were cultured in complete DMEM/F12 media without 9.7 microM Y-27632 dihydrochloride for at least two passages prior to the screen. The established cell line HOP-62 was cultured in RPMI 1640 medium, HEPES (Invitrogen, cat. 22400105) with 10% defined fetal bovine serum (HyClone Laboratories Inc., cat. SH30070.03) and 2 mM L-glutamine (Invitrogen, cat. 25030081). The pooled donor HUVEC were cultured in endothelial cell growth medium 2 (PromoCell, Heidelberg, Germany, cat. C-22011) and the hMSC were cultured in mesenchymal stem cell growth medium 2 (PromoCell, cat. C-28009). For all experiments, HUVEC and hMSC were used at passages </=5, while the malignant cell lines were used at passages </=15. […]

[1] = second compound 0.1 µM, first compound 0.0316 µM
[2] = second compound 0.316 µM, first compound 0.0316 µM
[3] = second compound 1 µM, first compound 0.0316 µM
[4] = second compound 3.16 µM, first compound 0.0316 µM
[5] = second compound 10 µM, first compound 0.0316 µM
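Further: drug exposure lasted seven days after spheroids formed for three days.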
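Wherever viability, T/C is given: percent of DMSO vehicle control viability which is 100%.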

CC(=O)Nc1cccc(-n2c(=O)n(C3CC3)c(=O)c3c(Nc4ccc(I)cc4F)n(C)c(=O)c(C)c32)c1 + C=CC(=O)N1CCN(c2nc(=O)n(-c3c(C)ccnc3C(C)C)c3nc(-c4c(O)cccc4F)c(F)cc23)C(C)C1
IC50 (second compound 0.1 µM): 0.34 nM
IC50 (second compound 0.316 µM): 0.468 nM
IC50 (second compound 1 µM): 0.395 nM
IC50 (second compound 3.16 µM): 0.235 nM
IC50 (second compound 10 µM): < 0.1 nM
viability, T/C (second compound 0.1 µM, first compound 0.0001 µM): 90%
viability, T/C (second compound 0.1 µM, first compound 0.000316 µM): 51.6%
viability, T/C (second compound 0.1 µM, first compound 0.001 µM): 27.4%
viability, T/C (second compound 0.1 µM, first compound 0.00316 µM): 18.7%
viability, T/C (second compound 0.1 µM, first compound 0.01 µM): 12.8%
viability, T/C [1]: 7.68%
viability, T/C (second compound 0.316 µM, first compound 0.0001 µM): 92%
viability, T/C (second compound 0.316 µM, first compound 0.000316 µM): 60.1%
viability, T/C (second compound 0.316 µM, first compound 0.001 µM): 30.3%
viability, T/C (second compound 0.316 µM, first compound 0.00316 µM): 18.9%
viability, T/C (second compound 0.316 µM, first compound 0.01 µM): 11.9%
viability, T/C [2]: 7.86%
viability, T/C (second compound 1 µM, first compound 0.0001 µM): 86.9%
viability, T/C (second compound 1 µM, first compound 0.000316 µM): 54.4%
viability, T/C (second compound 1 µM, first compound 0.001 µM): 31.9%
viability, T/C (second compound 1 µM, first compound 0.00316 µM): 19.6%
viability, T/C (second compound 1 µM, first compound 0.01 µM): 12.1%
viability, T/C [3]: 8.24%
viability, T/C (second compound 3.16 µM, first compound 0.0001 µM): 62.1%
viability, T/C (second compound 3.16 µM, first compound 0.000316 µM): 46.4%
viability, T/C (second compound 3.16 µM, first compound 0.001 µM): 26.8%
viability, T/C (second compound 3.16 µM, first compound 0.00316 µM): 17.5%
viability, T/C (second compound 3.16 µM, first compound 0.01 µM): 11.5%
viability, T/C [4]: 9.06%
viability, T/C (second compound 10 µM, first compound 0.0001 µM): 23%
viability, T/C (second compound 10 µM, first compound 0.000316 µM): 19.9%
viability, T/C (second compound 10 µM, first compound 0.001 µM): 10.9%
viability, T/C (second compound 10 µM, first compound 0.00316 µM): 11.7%
viability, T/C (second compound 10 µM, first compound 0.01 µM): 9.79%
viability, T/C [5]: 9.65%

COc1cc(Nc2ncc3c(n2)-c2ccc(Cl)cc2C(c2c(F)cccc2OC)=NC3)ccc1C(=O)O + C=CC(=O)N1CCN(c2nc(=O)n(-c3c(C)ccnc3C(C)C)c3nc(-c4c(O)cccc4F)c(F)cc23)C(C)C1
IC50 (second compound 0.1 µM): < 31.6 nM
IC50 (second compound 0.316 µM): < 31.6 nM
IC50 (second compound 1 µM): < 31.6 nM
IC50 (second compound 3.16 µM): < 31.6 nM
IC50 (second compound 10 µM): < 31.6 nM
viability, T/C [1]: 33.5%
viability, T/C (second compound 0.1 µM, first compound 0.1 µM): 34.2%
viability, T/C (second compound 0.1 µM, first compound 0.316 µM): 41.3%
viability, T/C (second compound 0.1 µM, first compound 1 µM): 40.8%
viability, T/C (second compound 0.1 µM, first compound 3.16 µM): 34.8%
viability, T/C (second compound 0.1 µM, first compound 10 µM): 26.4%
viability, T/C [2]: 35.9%
viability, T/C (second compound 0.316 µM, first compound 0.1 µM): 33.3%
viability, T/C (second compound 0.316 µM, first compound 0.316 µM): 37.4%
viability, T/C (second compound 0.316 µM, first compound 1 µM): 40.2%
viability, T/C (second compound 0.316 µM, first compound 3.16 µM): 40.3%
viability, T/C (second compound 0.316 µM, first compound 10 µM): 29.9%
viability, T/C [3]: 41.8%
viability, T/C (second compound 1 µM, first compound 0.1 µM): 35.6%
viability, T/C (second compound 1 µM, first compound 0.316 µM): 40.1%
viability, T/C (second compound 1 µM, first compound 1 µM): 39.4%
viability, T/C (second compound 1 µM, first compound 3.16 µM): 32.3%
viability, T/C (second compound 1 µM, first compound 10 µM): 30.6%
viability, T/C [4]: 36.8%
viability, T/C (second compound 3.16 µM, first compound 0.1 µM): 31.5%
viability, T/C (second compound 3.16 µM, first compound 0.316 µM): 34.8%
viability, T/C (second compound 3.16 µM, first compound 1 µM): 38%
viability, T/C (second compound 3.16 µM, first compound 3.16 µM): 35.2%
viability, T/C (second compound 3.16 µM, first compound 10 µM): 29.5%
viability, T/C [5]: 22.9%
viability, T/C (second compound 10 µM, first compound 0.1 µM): 30.9%
viability, T/C (second compound 10 µM, first compound 0.316 µM): 35.2%
viability, T/C (second compound 10 µM, first compound 1 µM): 34.5%
viability, T/C (second compound 10 µM, first compound 3.16 µM): 31.8%
viability, T/C (second compound 10 µM, first compound 10 µM): 30%
